Test results: patent publication US7338950B2, “Amide compounds as ion channel ligands and uses thereof” (Renovis, Inc., priority 2003, dated 2008)

tested on: VR1 receptor (293 cells expressing capsaicin-insensitive VR1 receptor variants); assay: High throughput screening of VR1 antagonists using a calcium imaging assay (Fura2, pH 5.1 stimulus); conditions: 1 uM compound; inhibition of calcium ion influx;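 note: Fura2 ratiometric fluorescence read every 4 s over 3 min, response taken as peak ratio minus baseline before pre-treatment, compound pre-treatment preceding acid challenge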
Source text: A dual wavelength ratiometric dye, Fura2, was used as an indicator of relative levels of calcium ions in a 96 well format using a bench top scanning fluorometer with integrated fluidics and temperature control (Flex Station, Molecular Devices).
A dual wavelength ratiometric dye, Fura2, was used as an indicator of relative levels of [Ca2+] in a 96 well format using a bench top scanning fluorometer with integrated fluidics and temperature control (Flex Station, Molecular Devices).
293 cells were grown on PDL coated 96-well black-walled plates, in the presence of a DMEM medium containing 5% Penstrep, 5% Glutamax, 200 ug/mL Hygromycin, 5 μg/mL Blasticide and 10% heat inactivated FBS. Prior to assay, the cells were loaded with 5 μg/mL Fura2 in normal saline solution at 37° C. for 40 minutes. Cells were then washed with normal saline to remove the dye.
The assay consists of two stages; a pre-treatment phase followed by a treatment phase.
50 μl of a compound solution was added to the cells (Pre-treatment). Immediately following, 50 μl of the test compound in a saline solution at pH 5.1 was added. […] Changes in wavelength measurements were made throughout the course of the experiment in 4 second intervals over a period of 3 minutes. Responses were measured as peak fluorescence ratio after test compound addition minus baseline fluorescence ratio prior to pre-treatment and were calculated using SoftMaxPro softwareData were expressed as percentage inhibition calculated using Excel as follows:

Question: For CCCCc1ccc(NC(=O)c2ccc(-c3ncccc3Cl)c(F)c2)cc1 [Compound 1144], which “% Inhibition @ 1 uM” value is on record?
Answer: ++++ (compound exhibited 75% or greater inhibition of calcium ion influx induced by capsaicin stimulation)

Question: With CCC(C)(C)NC(=O)c1ccc(-c2ncccc2Cl)cc1 [Compound 1070] as the compound, how does the “% Inhibition @ 1 uM” value read?
Answer: + (compound exhibited 0-25% inhibition of calcium ion influx induced by capsaicin stimulation)

Question: COc1ccc(NC(=O)c2ccc(-c3ncccc3Cl)c(OC)c2)cn1 [Compound 1247] was tested. Which “% Inhibition @ 1 uM” value did it give?
Answer: ++ (compound exhibited 25-50% inhibition of calcium ion influx induced by capsaicin stimulation)

Question: With O=C(Nc1ccc2ncccc2c1)c1ccc(-c2ncccc2Cl)cc1F [Compound 1124] as the compound, how does the “% Inhibition @ 1 uM” value read?
Answer: ++ (compound exhibited 25-50% inhibition of calcium ion influx induced by capsaicin stimulation)

Question: COc1ccc(NC(=O)c2ccc(-c3ncccc3Cl)c(OC)c2)cc1 [Compound 1207] was tested. Which “% Inhibition @ 1 uM” value did it give?
Answer: + (compound exhibited 0-25% inhibition of calcium ion influx induced by capsaicin stimulation)

Question: O=C(Nc1cccc(OC(F)(F)F)c1)c1ccc(-c2ncccc2Cl)cn1 [Compound 1361] was tested. Which “% Inhibition @ 1 uM” value did it give?
Answer: ++ (compound exhibited 25-50% inhibition of calcium ion influx induced by capsaicin stimulation)

Question: O=C(Nc1ccc(OC(F)(F)F)cc1)c1ccc(-c2ncccc2Cl)cn1 [Compound 1360] was tested. Which “% Inhibition @ 1 uM” value did it give?
Answer: + (compound exhibited 0-25% inhibition of calcium ion influx induced by capsaicin stimulation)

Question: For O=C(Nc1ccc2c(c1)OCCO2)c1ccc(-c2ncccc2Cl)cc1 [Compound 1018], which “% Inhibition @ 1 uM” value is on record?
Answer: ++ (compound exhibited 25-50% inhibition of calcium ion influx induced by capsaicin stimulation)

Question: How did the “% Inhibition @ 1 uM” value turn out when COc1cc(C(=O)Nc2cccc(OC(F)(F)F)c2)ccc1-c1ncccc1Cl [Compound 1269] was run?
Answer: + (compound exhibited 0-25% inhibition of calcium ion influx induced by capsaicin stimulation)

Question: COc1cc(C(=O)Nc2ccnc(Cl)c2)ccc1-c1ncccc1Cl [Compound 1248] was tested. Which “% Inhibition @ 1 uM” value did it give?
Answer: + (compound exhibited 0-25% inhibition of calcium ion influx induced by capsaicin stimulation)

Question: How did the “% Inhibition @ 1 uM” value turn out when O=C(Nc1ccc(N2CCOCC2)c(Cl)c1)c1ccc(-c2ncccc2Cl)c(F)c1 [Compound 1200] was run?
Answer: ++++ (compound exhibited 75% or greater inhibition of calcium ion influx induced by capsaicin stimulation)

Question: O=C(Nc1cc[nH]n1)c1ccc(-c2ncccc2Cl)cc1 [Compound 1026] was tested. Which “% Inhibition @ 1 uM” value did it give?
Answer: + (compound exhibited 0-25% inhibition of calcium ion influx induced by capsaicin stimulation)

Question: For CC(C)(C)c1ccc(NC(=O)c2ccc(-c3ncccc3Cl)c(F)c2)cc1 [Compound 1142], which “% Inhibition @ 1 uM” value is on record?
Answer: ++++ (compound exhibited 75% or greater inhibition of calcium ion influx induced by capsaicin stimulation)

Question: Which “% Inhibition @ 1 uM” value does the source give for CC(C)Oc1cccc(NC(=O)c2ccc(-c3ncccc3Cl)cc2)c1 [Compound 1295] here?
Answer: + (compound exhibited 0-25% inhibition of calcium ion influx induced by capsaicin stimulation)

Question: For O=C(Nc1ccc2c(c1)Cc1ccccc1-2)c1ccc(-c2ncccc2Cl)cc1 [Compound 1053], which “% Inhibition @ 1 uM” value is on record?
Answer: ++ (compound exhibited 25-50% inhibition of calcium ion influx induced by capsaicin stimulation)

Question: For Cc1cc(NC(=O)c2ccc(-c3ncccc3Cl)cc2F)nc(C)n1 [Compound 1123], which “% Inhibition @ 1 uM” value is on record?
Answer: +++ (compound exhibited 50-75% inhibition of calcium ion influx induced by capsaicin stimulation)

Question: How did the “% Inhibition @ 1 uM” value turn out when COc1cc(C(=O)Nc2cccc(OC(C)C)c2)ccc1-c1ncccc1Cl [Compound 1270] was run?
Answer: + (compound exhibited 0-25% inhibition of calcium ion influx induced by capsaicin stimulation)

Question: How did the “% Inhibition @ 1 uM” value turn out when CN1CCCc2ccc(NC(=O)c3ccc(-c4ncccc4Cl)c(F)c3)cc21 [Compound 1203] was run?
Answer: + (compound exhibited 0-25% inhibition of calcium ion influx induced by capsaicin stimulation)

Question: With COc1cc(C(=O)Nc2cc(C)cc(C)n2)ccc1-c1ncccc1Cl [Compound 1234] as the compound, how does the “% Inhibition @ 1 uM” value read?
Answer: + (compound exhibited 0-25% inhibition of calcium ion influx induced by capsaicin stimulation)

Question: COc1cc(C(=O)Nc2ccc3ccccc3c2)ccc1-c1ncccc1Cl [Compound 1253] was tested. Which “% Inhibition @ 1 uM” value did it give?
Answer: ++++ (compound exhibited 75% or greater inhibition of calcium ion influx induced by capsaicin stimulation)

Question: Which “% Inhibition @ 1 uM” value does the source give for O=C(Nc1nccs1)c1ccc(-c2ncccc2Cl)cc1 [Compound 1055] here?
Answer: + (compound exhibited 0-25% inhibition of calcium ion influx induced by capsaicin stimulation)

Question: How did the “% Inhibition @ 1 uM” value turn out when CC(C)c1ccc(NC(=O)c2ccc(-c3ncccc3Cl)cc2)cc1 [Compound 1042] was run?
Answer: ++++ (compound exhibited 75% or greater inhibition of calcium ion influx induced by capsaicin stimulation)

Question: Which “% Inhibition @ 1 uM” value does the source give for O=C(O)c1cccc(NC(=O)c2ccc(-c3ncccc3Cl)c(F)c2)c1 [Compound 1182] here?
Answer: + (compound exhibited 0-25% inhibition of calcium ion influx induced by capsaicin stimulation)

Question: With Cc1cc(NC(=O)c2ccc(-c3ncccc3Cl)cn2)nc(C)n1 [Compound 1343] as the compound, how does the “% Inhibition @ 1 uM” value read?
Answer: + (compound exhibited 0-25% inhibition of calcium ion influx induced by capsaicin stimulation)

Question: How did the “% Inhibition @ 1 uM” value turn out when O=C(Nc1cc[nH]n1)c1ccc(-c2ncccc2Cl)c(F)c1 [Compound 1175] was run?
Answer: + (compound exhibited 0-25% inhibition of calcium ion influx induced by capsaicin stimulation)

Question: With COc1ccc(NC(=O)c2ccc(-c3ncccc3Cl)cc2)cn1 [Compound 1049] as the compound, how does the “% Inhibition @ 1 uM” value read?
Answer: + (compound exhibited 0-25% inhibition of calcium ion influx induced by capsaicin stimulation)

Question: O=C(Nc1ccc(C2CCCCC2)cc1)c1ccc(-c2ncccc2Cl)cc1 [Compound 1044] was tested. Which “% Inhibition @ 1 uM” value did it give?
Answer: ++++ (compound exhibited 75% or greater inhibition of calcium ion influx induced by capsaicin stimulation)

Question: Which “% Inhibition @ 1 uM” value does the source give for O=C(Nc1cccc(Cl)c1)c1ccc(-c2ncccc2Cl)cc1F [Compound 1088] here?
Answer: + (compound exhibited 0-25% inhibition of calcium ion influx induced by capsaicin stimulation)

Question: For O=C(Nc1ccc2cn[nH]c2c1)c1ccc(-c2ncccc2Cl)cc1 [Compound 1290], which “% Inhibition @ 1 uM” value is on record?
Answer: ++ (compound exhibited 25-50% inhibition of calcium ion influx induced by capsaicin stimulation)

Question: Which “% Inhibition @ 1 uM” value does the source give for CCN(CC)c1ccc(NC(=O)c2ccc(-c3ncccc3Cl)cc2)cc1 [Compound 1061] here?
Answer: ++++ (compound exhibited 75% or greater inhibition of calcium ion influx induced by capsaicin stimulation)

Question: Which “% Inhibition @ 1 uM” value does the source give for O=C(Nc1ccc2ccccc2c1)c1ccc(-c2ncccc2Cl)cc1 [Compound 1074] here?
Answer: ++++ (compound exhibited 75% or greater inhibition of calcium ion influx induced by capsaicin stimulation)

Question: With CC(C)(NC(=O)c1ccc(-c2ncccc2Cl)cc1F)c1ccccc1 [Compound 1083] as the compound, how does the “% Inhibition @ 1 uM” value read?
Answer: + (compound exhibited 0-25% inhibition of calcium ion influx induced by capsaicin stimulation)

Question: O=C(Nc1cccc(OC(F)(F)F)c1)c1ccc(-c2ncccc2Cl)c(F)c1 [Compound 1193] was tested. Which “% Inhibition @ 1 uM” value did it give?
Answer: + (compound exhibited 0-25% inhibition of calcium ion influx induced by capsaicin stimulation)

Question: Which “% Inhibition @ 1 uM” value does the source give for O=C(Nc1ccccc1Cl)c1ccc(-c2ncccc2Cl)cn1 [Compound 1314] here?
Answer: ++++ (compound exhibited 75% or greater inhibition of calcium ion influx induced by capsaicin stimulation)

Question: How did the “% Inhibition @ 1 uM” value turn out when N#Cc1cccc(NC(=O)c2ccc(-c3ncccc3Cl)cc2)c1 [Compound 1039] was run?
Answer: + (compound exhibited 0-25% inhibition of calcium ion influx induced by capsaicin stimulation)

Question: COc1cc(C(=O)Nc2ccc3ncccc3c2)ccc1-c1ncccc1Cl [Compound 1250] was tested. Which “% Inhibition @ 1 uM” value did it give?
Answer: ++++ (compound exhibited 75% or greater inhibition of calcium ion influx induced by capsaicin stimulation)

Question: O=C(Nc1ccc2cn[nH]c2c1)c1ccc(-c2ncccc2Cl)cn1 [Compound 1357] was tested. Which “% Inhibition @ 1 uM” value did it give?
Answer: ++++ (compound exhibited 75% or greater inhibition of calcium ion influx induced by capsaicin stimulation)

Question: Which “% Inhibition @ 1 uM” value does the source give for O=C(Nc1ccc(C(F)(F)F)cn1)c1ccc(-c2ncccc2Cl)c(F)c1 [Compound 1166] here?
Answer: ++ (compound exhibited 25-50% inhibition of calcium ion influx induced by capsaicin stimulation)

Question: With Cc1cc(NC(=O)c2ccc(-c3ncccc3Cl)cc2)nc(C)n1 [Compound 1052] as the compound, how does the “% Inhibition @ 1 uM” value read?
Answer: + (compound exhibited 0-25% inhibition of calcium ion influx induced by capsaicin stimulation)

Question: N#Cc1cccc(NC(=O)c2ccc(-c3ncccc3Cl)cc2F)c1 [Compound 1101] was tested. Which “% Inhibition @ 1 uM” value did it give?
Answer: ++++ (compound exhibited 75% or greater inhibition of calcium ion influx induced by capsaicin stimulation)

Question: For COc1cc(C(=O)Nc2ccc(N3CCOCC3)c(Cl)c2)ccc1-c1ncccc1Cl [Compound 1276], which “% Inhibition @ 1 uM” value is on record?
Answer: + (compound exhibited 0-25% inhibition of calcium ion influx induced by capsaicin stimulation)

Question: Which “% Inhibition @ 1 uM” value does the source give for COc1cc(C(=O)Nc2ccc(Cl)cc2S(=O)(=O)O)ccc1-c1ncccc1Cl [Compound 1278] here?
Answer: + (compound exhibited 0-25% inhibition of calcium ion influx induced by capsaicin stimulation)

Question: O=C(Nc1ccncc1)c1ccc(-c2ncccc2Cl)cc1F [Compound 1079] was tested. Which “% Inhibition @ 1 uM” value did it give?
Answer: + (compound exhibited 0-25% inhibition of calcium ion influx induced by capsaicin stimulation)

Question: Which “% Inhibition @ 1 uM” value does the source give for CCOC(=O)c1cccc(NC(=O)c2ccc(-c3ncccc3Cl)cc2)c1 [Compound 1286] here?
Answer: + (compound exhibited 0-25% inhibition of calcium ion influx induced by capsaicin stimulation)

Question: For N#Cc1cccc(NC(=O)c2ccc(-c3ncccc3Cl)cn2)c1 [Compound 1316], which “% Inhibition @ 1 uM” value is on record?
Answer: ++++ (compound exhibited 75% or greater inhibition of calcium ion influx induced by capsaicin stimulation)

Question: COc1ccc(NC(=O)c2ccc(-c3ncccc3Cl)cc2)cc1Cl [Compound 1034] was tested. Which “% Inhibition @ 1 uM” value did it give?
Answer: + (compound exhibited 0-25% inhibition of calcium ion influx induced by capsaicin stimulation)

Question: Which “% Inhibition @ 1 uM” value does the source give for O=C(Nc1ccc(Br)cn1)c1ccc(-c2ncccc2Cl)cc1 [Compound 1066] here?
Answer: ++ (compound exhibited 25-50% inhibition of calcium ion influx induced by capsaicin stimulation)

Question: Which “% Inhibition @ 1 uM” value does the source give for COc1cc(C(=O)Nc2cc(C)ccn2)ccc1-c1ncccc1Cl [Compound 1240] here?
Answer: ++++ (compound exhibited 75% or greater inhibition of calcium ion influx induced by capsaicin stimulation)

Question: How did the “% Inhibition @ 1 uM” value turn out when O=C(Nc1cccnc1)c1ccc(-c2ncccc2Cl)cc1F [Compound 1080] was run?
Answer: + (compound exhibited 0-25% inhibition of calcium ion influx induced by capsaicin stimulation)

Question: For O=C(Nc1cccc(Cl)c1)c1ccc(-c2ncccc2Cl)c(F)c1 [Compound 1133], which “% Inhibition @ 1 uM” value is on record?
Answer: + (compound exhibited 0-25% inhibition of calcium ion influx induced by capsaicin stimulation)

Question: Which “% Inhibition @ 1 uM” value does the source give for COc1cc(C(=O)Nc2ccc(-c3cnco3)cc2)ccc1-c1ncccc1Cl [Compound 1277] here?
Answer: +++ (compound exhibited 50-75% inhibition of calcium ion influx induced by capsaicin stimulation)
